One data set has as its system EMT6.5 cells. The data set is described as follows: EMT6.5 orthotopic mammary tumour model, i.v. therapy. Type of data set: in vivo, mouse. The method, then: Balb/c mice (n=12) were implanted orthotopically with 100,000 EMT6.5 cells into the 4th inguinal mammary gland and established tumours monitored by calliper measurement. When tumours were ˜200 mm^3 the mice were randomized to either one of two therapeutic arms (n=6 per arm); 1) compound A108 (10 μg, per mouse), or 2) Vehicle (saline) control. Therapy was administered intravenously to tumour bearing mice in three doses, three days apart. All mice completed therapy and were culled 21 days after tumour implant. The primary tumours, lungs and spleens were recovered and weighed. Lungs were analysed by real time quantitative PCR (RTQ-PCR) for evaluation of metastatic burden. Body weight was measured throughout the experiment.

For data set [1] the following is noted: cited from earlier work; for IL-10 and Tregs / anti-tumour activity: subcutaneous or intraperitoneal administration (Yamazaki et al. 2011).

Regarding `CCCCCCCCCCCCCCCC(=O)OC[C@H](CSC[C@H](N)C(=O)N[C@@H](CO)C(=O)NCCOCCOCCOCCOCCOCCOCCOCCOCCOCCOCCOCCOCCOCCOCCOCCOCCOCCOCCOCCOCCOCCOCCOCCOCCOCCOCCOCCOCCC(=O)NCC(N)=O)OC(=O)CCCCCCCCCCCCCCC` [A108], the severe weight loss result in the data set with EMT6.5 cells (10 μg per mouse i.v., three doses) is recorded as “No severe weight loss was observed”. The “body weight on initial therapy” value in the data set with EMT6.5 cells (10 μg per mouse i.v., three doses three days apart, data not shown) was “induced an acute weight loss”. In the data set on EMT6.5 cells (following cessation of therapy), the “reversibility of weight loss” value was “reversible following cessation of therapy”.
As to MALP2, in data set [1], the “IL-10 and Tregs” value was “induce IL-10 and Tregs”; the anti-tumour activity result is “no anti-tumour activity”.
Consider Pam2CysSK4, for which the “myeloid derived suppressor cells” value in data set [1] (intravenous administration (Maruyama et al. 2015)) is “promotes myeloid derived suppressor cells”. Also, in data set [1], the “IL-10 and Tregs” value is “induce IL-10 and Tregs”; the anti-tumour activity entry is on record as “no anti-tumour activity”.
